In ChEMBL document CHEMBL4414652, “Identification of Methionine Aminopeptidase-2 (MetAP-2) Inhibitor M8891: A Clinical Compound for the Treatment of Cancer” (J Med Chem, 2019):
pIC50: −log10 of the molar value. Values after ≈ are worked out from the molar mass of the structure shown.

Columns and labels:
[1] = target: Methionine aminopeptidase 1 (Homo sapiens, UniProt P53582)
Description: Inhibition of N-terminal MetAP1 (unknown origin)

in vivo [2] = settings: mouse, faeces, iv
Description: Drug recovery in iv dosed mouse feces

[3] = mouse, in vivo, iv, 1 mg/kg
[4] = Drug recovery in monkey at 0.2 mg/kg, iv measured up to 72 hrs; assay type: ADME, organism-based, Macaca mulatta; settings: rhesus monkey, in vivo
in vitro [5] = settings: human, plasma
Description: Protein binding in human plasma assessed as unbound fraction

in vivo [6] = settings: mouse, iv
Description: Half life in iv dosed mouse

in vitro [7] = settings: mouse, plasma
Description: Protein binding in mouse plasma assessed as unbound fraction

[8] = Drug recovery in dog at 0.2 mg/kg, iv measured up to 72 hrs; assay type: ADME, organism-based, Canis lupus familiaris; settings: in vivo
physchem = settings: PBS buffer
Description: Solubility of compound in PBS buffer

Description for CAKI-1: Antitumour activity against human Caki1 cells xenografted in nude CD-1 mouse assessed as tumor growth at 25 mg/kg, po BID for 36 days relative to control
Description for U-87 MG: Antitumour activity against human U87MG cells xenografted in nude CD-1 mouse assessed as tumor growth at 20 mg/kg, po administered daily for 14 days relative to control

**Q.** With O=C1CCc2cc(N3CC[C@](O)(C(=O)NCc4cccc(Cl)c4F)C3=O)ccc2N1 as the molecule, how does the pIC50 [1] read?
**A.** Its pIC50 is < 5.00.

**Q.** With Cc1cc2cc(N3CC[C@](O)(C(=O)NCc4cc(F)cc(Cl)c4)C3=O)ccc2[nH]1 as the molecule, how does the pIC50 [1] read?
**A.** Its pIC50 is < 5.00.

**Q.** For O=C(NCc1cc(F)cc(Cl)c1)[C@@]1(O)CCN(c2cnc3[nH]ccc3c2)C1=O, which T/C (U-87 MG) is on record?
**A.** The T/C was 45%.

**Q.** And the dose excreted (in vivo [2])?
**A.** Its dose excreted is 2.3%.

**Q.** And the pIC50 [1]?
**A.** The pIC50 was < 5.00.

**Q.** With O=C1CCc2cc(N3CC[C@](O)(C(=O)NCc4c(F)cccc4Cl)C3=O)ccc2N1 as the molecule, how does the pIC50 [1] read?
**A.** The pIC50 was < 5.00.

**Q.** With O=C(NCc1cc(F)cc(F)c1)[C@@]1(O)CCN(c2ccc3[nH]ncc3c2)C1=O as the molecule, how does the dose excreted (in vivo [2]) read?
**A.** Its dose excreted is < 1%.

**Q.** What about the pIC50 [1] of the same molecule?
**A.** Its pIC50 is < 5.00.

**Q.** Which results are given for O=C(NCc1cc(F)cc(Cl)c1)[C@@]1(O)CCN(c2ccc3[nH]ncc3c2)C1=O?
**A.** dose excreted (in vivo [2]): < 1%; pIC50 [1]: < 5.00

**Q.** With CN1C(=O)CCc2cc(N3CC[C@](O)(C(=O)NCc4cc(F)cc(Cl)c4)C3=O)ccc21 as the molecule, how does the pIC50 [1] read?
**A.** Its pIC50 is < 5.00.

**Q.** With O=C1CCc2cc(N3CC[C@](O)(C(=O)NCc4cc(F)cc(Cl)c4F)C3=O)ccc2N1 as the molecule, how does the pIC50 [1] read?
**A.** The pIC50 was < 5.00.

**Q.** With CCNC(=O)c1cc2cc(N3CC[C@](O)(C(=O)NCc4cc(F)cc(Cl)c4)C3=O)ccc2[nH]1 as the molecule, how does the pIC50 [1] read?
**A.** The pIC50 was < 5.00.

**Q.** With O=C1CCc2cc(N3CC[C@](O)(C(=O)NCc4ccc(F)c(Cl)c4F)C3=O)ccc2N1 as the molecule, how does the pIC50 [1] read?
**A.** Its pIC50 is < 5.00.

**Q.** With O=C1CCc2cc(N3CC[C@](O)(C(=O)NCc4c(F)ccc(F)c4F)C3=O)ccc2N1 as the molecule, how does the pIC50 [1] read?
**A.** The pIC50 was < 5.00.

**Q.** With NCCCNC(=O)c1cc2cc(N3CC[C@](O)(C(=O)NCc4cc(F)cc(Cl)c4)C3=O)ccc2[nH]1 as the molecule, how does the pIC50 [1] read?
**A.** Its pIC50 is < 5.00.

**Q.** With O=C1CCc2cc(N3CC[C@](O)(C(=O)NCc4cc(F)cc(F)c4)C3=O)ccc2N1 as the molecule, how does the pIC50 [1] read?
**A.** Its pIC50 is < 5.00.

**Q.** With O=C1CCc2cc(N3CC[C@](O)(C(=O)NCc4cc(F)cc(Cl)c4)C3=O)cc(F)c2N1 as the molecule, how does the pIC50 [1] read?
**A.** Its pIC50 is < 5.00.

**Q.** Which dose excreted (in vivo [2]) does the source give for O=C(NCc1cc(F)cc(F)c1)[C@@]1(O)CCN(c2cnc3[nH]ccc3c2)C1=O here?
**A.** The dose excreted was < 1%.

**Q.** And the T/C (CAKI-1)?
**A.** Its T/C is 39%.

**Q.** What about the pIC50 [1] of the same molecule?
**A.** The pIC50 was < 5.00.

**Q.** With O=C1CCc2cc(N3CC[C@](O)(C(=O)NCc4cc(F)cc(F)c4F)C3=O)ccc2N1 as the molecule, how does the pIC50 [1] read?
**A.** Its pIC50 is < 5.00.

**Q.** With O=C1CCc2cc(N3CC[C@](O)(C(=O)NCc4cccc(F)c4F)C3=O)ccc2N1 as the molecule, how does the pIC50 [1] read?
**A.** The pIC50 was < 5.00.

**Q.** With O=C1CCc2cc(N3CC[C@](O)(C(=O)NCc4cc(F)c(F)c(F)c4)C3=O)ccc2N1 as the molecule, how does the pIC50 [1] read?
**A.** The pIC50 was < 5.00.

**Q.** With O=C1CCc2cc(N3CC[C@](O)(C(=O)NCc4cc(F)ccc4Cl)C3=O)ccc2N1 as the molecule, how does the pIC50 [1] read?
**A.** Its pIC50 is < 5.00.

**Q.** With O=C1CCc2cc(N3CC[C@](O)(C(=O)NCc4c(F)cccc4F)C3=O)ccc2N1 as the molecule, how does the pIC50 [1] read?
**A.** Its pIC50 is < 5.00.

**Q.** With O=C(NCc1cc(F)cc(Cl)c1)[C@@]1(O)CCN(c2cnc3[nH]cc(Cl)c3c2)C1=O as the molecule, how does the dose excreted (in vivo [2]) read?
**A.** The dose excreted was 1.5%.

**Q.** What about the pIC50 [1] of the same molecule?
**A.** Its pIC50 is < 5.00.

**Q.** What does the source list for O=C1CCc2cc(N3CC[C@](O)(C(=O)NCc4cc(F)cc(Cl)c4)C3=O)ccc2N1?
**A.** AUC [3]: 19 ng·h/mL; Drug recovery [4]: Active; fraction unbound (in vitro [5]): 0.023; half-life (in vivo [6]): 3 h; T/C (U-87 MG): 45%; fraction unbound (in vitro [7]): 0.017; dose excreted (in vivo [2]): 23%; Drug recovery [8]: Active; pIC50 [1]: < 5.00; solubility (physchem): 90 µg/mL (≈ 208 µM)

**Q.** With O=C(NCc1cc(F)cc(Cl)c1)[C@@]1(O)CCN(c2ccc3[nH]ccc3c2)C1=O as the molecule, how does the dose excreted (in vivo [2]) read?
**A.** The dose excreted was < 1%.

**Q.** And the pIC50 [1]?
**A.** The pIC50 was < 5.00.

**Q.** With CS(=O)(=O)Nc1cccc(N2CC[C@](O)(C(=O)NCc3cc(F)cc(Cl)c3)C2=O)c1 as the molecule, how does the pIC50 [1] read?
**A.** The pIC50 was < 5.00.

**Q.** Which results are given for O=C(NCc1cc(F)cc(F)c1)[C@@]1(O)CCN(c2cnc3[nH]cc(Cl)c3c2)C1=O?
**A.** dose excreted (in vivo [2]): 2.7%; pIC50 [1]: < 5.00
